For 22 compounds, log p results are on record in patent publication US6730705B1, “Alkoximino acetic acid amides” (Bayer Aktiengesellschaft, priority 1995, dated 2004).

A short description of the first series: log p (physical constant, Table 7). Particulars: E/Z isomer mixture; first of two printed values (x/y).
For `CON=C(C(=O)NCCc1ccc(OC)c(OC)c1)c1ccc(C)cc1` (mixture of isomers) [Compound 41], the log p is reported as 2.53.

Turning to `CCON=C(C(=O)NCCc1ccc(OC)c(OC)c1)c1ccc(Cl)cc1` (mixture of isomers) [Compound 77], the log p amounted to 3.07.

The same series, now with this note: E/Z isomer mixture; second of two printed values (x/y).
As to `CON=C(C(=O)NCCc1ccc(OC)c(OC)c1)c1ccc(C)cc1` (mixture of isomers) [Compound 41], the log p is listed as 2.77.

With `CCON=C(C(=O)NCCc1ccc(OC)c(OC)c1)c1ccc(Cl)cc1` (mixture of isomers) [Compound 77], the log p turned out to be 3.34.

The series is the same for the next values; noted with them: physical constant of Table 7.
`CO/N=C(/C(=O)NCCc1ccc(OC)c(OC)c1)c1ccc(Cl)cc1` [Compound 24]: the log p result is “log p: 2.99”.

As for `CON=C(C(=O)NCCc1ccc(OC)c(OC)c1)c1ccc(C)s1` [Compound 73], the log p entry is on record as “log p: 2.46”.

On to `CCc1ccc(/C(=N\OC)C(=O)NCCc2ccc(OC)c(OC)c2)cc1` [Compound 81], for which the log p entry is “log p: 2.86”.

`CCOc1ccc(/C(=N\OC)C(=O)NCCc2ccc(OC)c(OC)c2)cc1` [Compound 82]: the log p entry was “log p: 2.59”.

Take `CO/N=C(\C(=O)NCCc1ccc(OC)c(OC)c1)c1ccc(C)c(C)c1` [Compound 91]: the log p entry is given as “log p: 3.00”.

For the compound `CO/N=C(/C(=O)NCCc1ccc(OC)c(OC)c1)c1ccc(Br)cc1` [Compound 96], the log p entry was “log p: 2.82”.

For the compound `CO/N=C(/C(=O)NCCc1ccc(OC)c(OC)c1)c1ccc(F)cc1` [Compound 98], the log p result was “log p: 2.39”.

For the compound `CO/N=C(/C(=O)NCCc1ccc(OC)c(OC)c1)c1ccc(C)c(C)c1` [Compound 99], the log p result is on record as “log p: 2.75”.

For `CCO/N=C(/C(=O)NCCc1ccc(OC)c(OC)c1)c1ccc(C)cc1` [Compound 110], the log p entry is recorded as “log p: 2.85”.

On to `CON=C(C(=O)NCCc1ccc(OC)c(OC)c1)c1ccc2c(c1)CCC2` [Compound 114], for which the log p entry is listed as “log p: 3.01”.

Regarding `CON=C(C(=O)NCCc1ccc(OC)c(OC)c1)c1ccc2c(c1)CCCC2` [Compound 117], the log p result is “log p: 3.44”.

Consider `CCCc1ccc(C(=NOC)C(=O)NCCc2ccc(OC)c(OC)c2)cc1` [Compound 124], for which the log p entry is given as “log p: 3.25”.

As to `CON=C(C(=O)NCCc1ccc(OC)c(OC)c1)c1ccc(OCc2ccccc2)cc1` [Compound 126], the log p entry is recorded as “log p: 3.49”.

Turning to `CCc1ccc(C(=NOC)C(=O)NCCc2ccc(OC)c(OC)c2)s1` [Compound 127], the log p entry is reported as “log p: 3.22”.

In the case of `CCCCc1ccc(C(=NOC)C(=O)NCCc2ccc(OC)c(OC)c2)cc1` [Compound 132], the log p entry is on record as “log p: 3.62”.

In the case of `CCc1ccc(C(=NOC)C(=O)NCCc2ccc(OC)c(OC)c2)s1` [Compound 143], the log p entry was “log p: 2.77”.

For the compound `CCON=C(C(=O)NCCc1ccc(OC)c(OC)c1)c1ccc(Br)cc1` [Compound 146], the log p entry was “log p: 3.15”.

The nature of the next series: log p (physical constant of Table 7). Particulars: single isomer (E or Z as listed in Table 7).
`CCON=C(C(=O)NCCc1ccc(OC)c(OC)c1)c1ccc2c(c1)CCC2` [Compound 170]: the log p entry is reported as “log p: 3.25”.

As to `CO/N=C(/C(=O)NCCc1ccc(OC)c(OC)c1)c1ccc(C2CCCCC2)cc1` [Compound 171], the log p entry was “log p: 4.03”.

`CCON=C(C(=O)NCCc1ccc(OC)c(OC)c1)c1ccc2c(c1)CCCC2` [Compound 173]: the log p result was “log p: 3.53”.
